Test results reported in ChEMBL document CHEMBL1201862, “PubChem BioAssay data set” (2004).
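48-hour exposure; five concentrations; linearly interpolated endpoints. GI50: concentration for 50% inhibition of growth.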 Activity calls are given as the source filed them. Rule as the data show it: active = GI50 up to about 1.1 µM and inactive = higher.

Legend:
Test in all cases: NCI tumour cell line growth inhibition, 48 h
A498 = system: A498
ACHN = system: ACHN
HCC 2998 = system: HCC 2998
HCT-116 = system: HCT-116
HCT-15 = system: HCT-15
HOP-62 = system: HOP-62
HOP-92 = system: HOP-92
IGROV-1 = system: IGROV-1
K562 = system: K562
M14 = system: M14
Malme-3M = system: Malme-3M
NCI-H226 = system: NCI-H226
RPMI-8226 = system: RPMI-8226
RXF 393 = system: RXF 393
SF-268 = system: SF-268
SF-295 = system: SF-295
SK-MEL-28 = system: SK-MEL-28
SNB-19 = system: SNB-19
SW-620 = system: SW-620
UACC-257 = system: UACC-257

SMILES | GI50 (A498) | GI50 (ACHN) | GI50 (HCC 2998) | GI50 (HCT-116) | GI50 (HCT-15) [µM] | GI50 (HOP-62) | GI50 (HOP-92) | GI50 (IGROV-1) | GI50 (K562) | GI50 (M14) | GI50 (Malme-3M) | GI50 (NCI-H226) | GI50 (RPMI-8226) | GI50 (RXF 393) | GI50 (SF-268) | GI50 (SF-295) | GI50 (SK-MEL-28) | GI50 (SNB-19) | GI50 (SW-620) | GI50 (UACC-257)
COc1ccc(C2C3C(=O)C=CC(=O)C3[C@@H]2C)cc1OC (stereo not given in full) | > 100 µM (inactive) | 47.6 µM (inactive) | > 100 µM (inactive) | 28.4 µM (inactive) | 23.6 | > 100 µM (inactive) | > 100 µM (inactive) | > 100 µM (inactive) | 62.7 µM (inactive) | > 100 µM (inactive) | > 100 µM (inactive) | 81.7 µM (inactive) | 27.6 µM (inactive) | > 100 µM (inactive) | > 100 µM (inactive) | > 100 µM (inactive) | > 100 µM (inactive) | 12.2 µM (inactive) | 42.1 µM (inactive) | > 100 µM (inactive)
S=C(Cc1ccc2c(c1)Sc1ccccc1O2)N1CCOCC1 | 50.6 µM (inactive) | 38.7 µM (inactive) | 86.1 µM (inactive) | 8.32 µM (inactive) | 41.9 | > 100 µM (inactive) | 30.6 µM (inactive) | 33.7 µM (inactive) | > 100 µM (inactive) | 40.6 µM (inactive) | 23.8 µM (inactive) | 28.8 µM (inactive) | 34.8 µM (inactive) | 69.8 µM (inactive) | 32.6 µM (inactive) | 22.6 µM (inactive) | 59.7 µM (inactive) | > 100 µM (inactive) | 43 µM (inactive) | 31.4 µM (inactive)
c1ccc2c(c1)nnn2CNc1ccc(N2CCOCC2)cc1 | > 100 µM (inactive) | 67.3 µM (inactive) | > 100 µM (inactive) | > 100 µM (inactive) | > 100 | > 100 µM (inactive) | > 100 µM (inactive) | > 100 µM (inactive) | > 100 µM (inactive) | > 100 µM (inactive) | > 100 µM (inactive) | > 100 µM (inactive) | 47.4 µM (inactive) | > 100 µM (inactive) | > 100 µM (inactive) | > 100 µM (inactive) | > 100 µM (inactive) | > 100 µM (inactive) | > 100 µM (inactive) | > 100 µM (inactive)
N#CC1(c2nc3ccccc3o2)C(=O)C(=O)N(C2C3CC4CC(C3)CC2C4)C(=O)C1=O (stereo not given) | > 100 µM (inactive) | > 100 µM (inactive) | > 100 µM (inactive) | > 100 µM (inactive) | > 100 | > 100 µM (inactive) | 84.9 µM (inactive) | > 100 µM (inactive) | > 100 µM (inactive) | > 100 µM (inactive) | > 100 µM (inactive) | > 100 µM (inactive) | 26.4 µM (inactive) | > 100 µM (inactive) | > 100 µM (inactive) | > 100 µM (inactive) | > 100 µM (inactive) | > 100 µM (inactive) | > 100 µM (inactive) | > 100 µM (inactive)
CC(C)(CN1CCCCC1)C(=O)/C=C/c1c(Cl)cccc1Cl | 1.57 µM (inactive) | 1.49 µM (inactive) | 1.83 µM (inactive) | 0.637 µM (active) | 0.879 | 1.79 µM (inactive) | 1.05 µM (active) | 0.192 µM (active) | 0.736 µM (active) | 0.863 µM (active) | 0.489 µM (active) | 2.65 µM (inactive) | 3.89 µM (inactive) | 0.701 µM (active) | 1.13 µM (inactive) | 2.64 µM (inactive) | 1.56 µM (inactive) | 2.44 µM (inactive) | 0.927 µM (active) | 2 µM (inactive)
CCOc1ccc(NC(=O)C(=O)CC(=O)c2c(C)[n+]([O-])c3ccccc3[n+]2[O-])cc1 | > 100 µM (inactive) | > 100 µM (inactive) | > 100 µM (inactive) | > 100 µM (inactive) | > 100 | > 100 µM (inactive) | > 100 µM (inactive) | > 100 µM (inactive) | > 100 µM (inactive) | > 100 µM (inactive) | > 100 µM (inactive) | > 100 µM (inactive) | > 100 µM (inactive) | > 100 µM (inactive) | > 100 µM (inactive) | > 100 µM (inactive) | > 100 µM (inactive) | > 100 µM (inactive) | > 100 µM (inactive) | > 100 µM (inactive)
O=c1[nH]nc(-c2ccccc2)n1/N=C/c1ccccc1Cl | 30.1 µM (inactive) | 52.6 µM (inactive) | 36.2 µM (inactive) | 33.9 µM (inactive) | 31.6 | 29.4 µM (inactive) | 67.1 µM (inactive) | 21.8 µM (inactive) | 31.3 µM (inactive) | 35.4 µM (inactive) | 20.3 µM (inactive) | 30.8 µM (inactive) | 21.1 µM (inactive) | 25.4 µM (inactive) | 53.6 µM (inactive) | 34 µM (inactive) | 52 µM (inactive) | > 100 µM (inactive) | 50.7 µM (inactive) | 64 µM (inactive)
